Values quoted from earlier work in US20080139609A1, “GRANISETRON COMPOSITIONS” (priority 2006, published 2008).

Legend:
[1] = in water and in normal saline at 20° C.
[2] = tested on: other serotonin receptors; conditions: selective 5-HT3 receptor antagonist

Row | Solubility [1] | Affinity for other serotonin receptors [2] | SMILES
1 | readily soluble | – | CN1C2CCCC1CC(NC(=O)c1nn(C)c3ccccc13)C2.Cl (stereo not drawn) [Granisetron hydrochloride, endo-N-(9-methyl-9-azabicyclo[3.3.1]non-3-yl)-1-methyl-1H-indazole-3-carboxamide hydrochloride]
2 | – | little or no affinity | CN1C2CCCC1CC(NC(=O)c1nn(C)c3ccccc13)C2 (centres unmarked) [Granisetron]
